# Measurements as given in patent US20160106692A1 (priority 2014, published 2016).
# “Also recorded” adds a separate entry of the source.
# Columns and labels:
# [1] = system: Influenza Virus A/California/07/2009 H1N1; assay type: cell-based
# [2] = system: Influenza Virus A/Maryland/04/2011 H1N1; assay type: cell-based
compound,measurement,setting,value
CCOC(=O)C1=C[C@@H](OC(CC)CC)[C@H](NC(C)=O)[C@@H](N)C1 [Oseltamivir],"plaque inhibition, result in words",[1],sensitive to this drug to 1 μM; also recorded: showed inhibitory effects
same,"plaque inhibition, result in words",[2],only partially sensitive; also recorded: reduced oseltamivir susceptibility
